Experimental data reported in US11234984B2, “Solid dispersion” (Shizuoka Prefectural University Corporation, priority 2017, dated 2022).
Values after ≈ are worked out from the molar mass of the structure shown. Where two headings read alike, the source gives them in different places.

Experiments:
[1] = Test Example 1. Solubility Test; format: physicochemical; conditions: thermodynamic from solid, shaken at 37° C. for 2 hours, mean of two measurements, read-out: Solubility of Compound A
Description: 5 mL of a first fluid (pH1.2) or 5 mL of a […] for an elution test in Japanese Pharmacopoeia was added to the solid dispersions of Example 1 and Comparative Examples 1 to 8, and the sample of Comparative Example 9, the solid dispersions were ground using a glass rod or a spatula, and then shaken at 37° C. for 2 hours. 400 μL of a mixed solution (acetonitrile/water=3/2) was immediately added to 600 μL of the sample solution filtered off using a 0.45 μm filter, and a concentration of the compound A in the sample solution was measured by HPLC (Shimadzu Corporation). Here, values in the table are the mean values obtained by repeating measurements twice.

[2] = Test Example 2. Absorbability of the solid dispersion containing the compound A in rats; format: in vivo; conditions: male, Crl:CD (SD), rat, plasma, po, 30 mg/kg, single dose 30 mg/kg as compound A, mean ± SD n=3
Description: A single dose of 10 mg/kg or 30 mg/kg, as the compound A, of the solid dispersions of Example 2 and Comparative Example 10, and the sample of Comparative Example 11 suspended in a 1% carboxymethylcellulose aqueous solution was orally administered to fasted male rats (8 weeks old, Crl:CD (SD), Japan Charles River Laboratories). A crystalline form of the compound A was used as a control (Comparative Example 12). A collection time was 0.5, 1, 2, 4, 8, and 24 hours after administration, and about 300 μL of blood was collected at each time point from vena caudalis (n=3). The obtained blood was centrifuged at 1500×g, 4° C. for 15 minutes to obtain a plasma. The concentration of the compound A in the plasma was measured by HPLC (Shiseido and Hitachi High-Technologies Corporation). A time to reach the highest concentration in the plasma (Tmax), the highest concentration in the plasma (Cmax) and an area under the plasma concentration-time curve (AUC) were calculated from the change in the concentration in the obtained plasma. Here, values in the table are the mean value±standard deviation of three examples.

solubility at 2 h ([1]; pH 1.2, simulated gastric fluid, First fluid for dissolution test (pH1.2))	solubility at 2 h ([1]; pH 6.8, aqueous buffer, Second fluid for dissolution test (pH6.8))	Tmax [2]	SMILES
0.39 µg/mL (≈ 1.13 µM)	0.49 µg/mL (≈ 1.41 µM)	–	N#Cc1cc(-c2nc3c(O)ncnc3s2)ccc1Oc1ccccc1 [Comparative Example 9, 2-(3-cyano-4-phenoxyphenyl)-7-hydroxythiazolo[5,4-d]pyrimidine]
–	–	3.7 ± 3.8 h	N#Cc1cc(-c2nc3c(O)ncnc3s2)ccc1Oc1ccccc1 [Comparative Example 11, 2-(3-cyano-4-phenoxyphenyl)-7-hydroxythiazolo[5,4-d]pyrimidine]
